Measurements: article PMC12439480, “Dimeric CCK2R radiotheranostic tracers synergize with mTOR inhibition for enhanced tumor therapy” (Theranostics, 2025)
Numbered stars: 1 amine (or outer) side, 2 acyl side, 3 side chain; on linkers, the order of the positions; unused ones are H or OH. Square brackets hold non-standard residues; d marks the D form. Side chains are listed from the residue outwards. Peptide text beside a SMILES is read from it. * marks the point of attachment. DOTA = O=C(O)CN1CCN(CC(=O)O)CCN(CC(=O)*)CCN(CC(=O)O)CC1; d(γGlu) = O=C(O)[C@@H](CCC(=O)[*:2])N[*:1]; 1Nal = N[C@@H](Cc1cccc2ccccc12)C(=O)O; NMeNle = CCCC[C@H](NC)C(=O)O; PEG4 = NCCOCCOCCOCCOCCC(=O)O

What was measured:
[1] = type: physicochemical; settings: pH 7.4
Experimental: The hydrophilicity of [^68Ga]Ga-DOTA-CCK2R-dimer and [^68Ga]Ga-DOTA-CCK-66 was assessed by determining their partition coefficients (Log D7.4) in a phosphate-buffered saline (PBS; pH 7.4)/n-octanol (1:1, v/v) system. Briefly, ~37 kBq of each radiotracer was mixed with 2 mL of the biphasic system, vortexed for 5 min, and centrifuged at 15,000 × g for 5 min. The radioactivity in 100 μL aliquots of each phase was quantified using a γ-counter (n = 5).

[2] = set-up: species or system KM mice; settings: mouse, in vivo, iv
Experimental: To evaluate the clearance rates of [^68Ga]Ga-DOTA-CCK2R-dimer and [^68Ga]Ga-DOTA-CCK-66 from the blood, a pharmacokinetic study was conducted in male KM mice (4-6 weeks old, 18-20 g, n = 5/group). Each mouse received 3.7 MBq of radiotracer via tail vein injection, corresponding to approximately 120 pmol of [^68Ga]Ga-DOTA-CCK2R-dimer or 210 pmol of [^68Ga]Ga-DOTA-CCK-66. Blood samples were collected from the tail vein into preweighed capillary tubes at 1, 3, 5, 10, 15, 30, 60, 90, 120, and 150 min post-injection. The radioactivity of the blood samples was measured using a γ-counter, and the percent of injected dose per gram of tissue (%ID/g) was calculated. Additionally, we assessed the in vivo stability of [^177Lu]Lu-DOTA-CCK2R-dimer. Mice were intravenously injected with 7.4 MBq (≈ 240 pmol) of [^177Lu]Lu-DOTA-CCK2R-dimer (dissolved in 200 μL of saline; n = 3/group). Urine samples were collected at 1, 4, and 24 hours post-injection, then diluted, filtered through a 0.22 μm membrane, and analyzed by radio-HPLC.
All animal studies were approved by the Ethics Committee of Fudan University […]
Shanghai Cancer Center (No. FUSCC-IACUC- S2023- 0003). […]
Pharmacokinetics in Normal Mice
F or the pharmacokinetics study, […] male KM mice (4 - 6 weeks old, weighing 18 - 20 g) were administered either [68Ga]Ga-D O TA -CCK2R-dimer or [68Ga]Ga-D O TA -CCK- 66 (3.7 MBq per mouse, n = 5/group) via tail vein injection.
Blood samples were collected from the tail vein using pre-weighed capillary tubes at […]
Radioactivity levels were measured using a gamma counter, with decay correction applied based on the injection time. The percentage of injected dose per gram of tissue (%ID/g) was calculated for each time point. […]

in vivo = assay: in vivo; set-up: species or system BALB/c nude mice; settings: mouse; for tissue to tissue ratio at 0.5 h / tissue to tissue ratio at 1 h / tissue to tissue ratio at 2 h: female, BALB/c nude, iv, 3.7 MBq, total radioactivity
Experimental: To complement the imaging studies, biodistribution experiments were performed. AR42J tumor-bearing mice were intravenously injected with 3.7 MBq of [^68Ga]Ga-DOTA-CCK2R-dimer (≈ 120 pmol) or [^68Ga]Ga-DOTA-CCK-66 (≈ 210 pmol) (dissolved in 200 μL of saline; n = 3/group). The mice were sacrificed at 30, 60, and 120 min post-injection, and the tissues of interest were excised, weighed, and analyzed for radioactivity using a γ-counter. For blocking studies, a 400-fold excess of the lead compound was co-administered, and the mice were sacrificed at 1 h post-injection.
All animal studies were approved by the Ethics Committee of Fudan University
Shanghai Cancer Center (No. FUSCC-IACUC- S2023- 0003). Five-week-old female
BALB/c nude mice were purchased from Shanghai SLAC Laboratory Animal
Company. To establish cell-derived xenograft (CDX) models, 1 × 10⁶ AR42J cells
(100 μL) were subcutaneously inoculated into the right shoulder of each mouse. […]

[3] = Tumor-to-Large intestine ratio (T/B)
[4] = Tumor-to-Small intestine ratio (T/B)

For `CCCC[C@@H](C(=O)N[C@@H](CC(=O)O)C(=O)N[C@@H](Cc1cccc2ccccc12)C(N)=O)N(C)C(=O)[C@H](Cc1c[nH]c2ccccc12)NC(=O)CCOCCOCCOCCOCCNC(=O)CC[C@@H](NC(=O)CC[C@H](NC(=O)CN1CCN(CC(=O)O)CCN(CC(=O)O)CCN(CC(=O)O)CC1)C(=O)N[C@H](CCC(=O)NCCOCCOCCOCCOCCC(=O)N[C@@H](Cc1c[nH]c2ccccc12)C(=O)N(C)[C@@H](CCCC)C(=O)N[C@@H](CC(=O)O)C(=O)N[C@@H](Cc1cccc2ccccc12)C(N)=O)C(=O)O)C(=O)O` [[68Ga]Ga-DOTA-CCK2R-dimer, metal not drawn] ({DOTA}-E([d(γGlu)-PEG4-Trp-NMeNle-Asp-1Nal-NH2])[d(γGlu)][PEG4]W[NMeNle]D[1Nal]-NH2), the logD [1] was -3.01 ± 0.05, the half-life [2] was 46.6 min and the tissue to tissue ratio at 0.5 h (in vivo; Tumor-to-Bladder ratio (T/B)) was 7.42 ± 4.09. It also gave a tissue to tissue ratio at 1 h (in vivo; Tumor-to-Bladder ratio (T/B)) of 8.41 ± 1.6, a tissue to tissue ratio at 2 h (in vivo; Tumor-to-Bladder ratio (T/B)) of 40.8 ± 16.9 and a tissue to tissue ratio at 0.5 h (in vivo; Tumor-to-Blood ratio (T/B)) of 3.01 ± 1.29. For the same compound, the tissue to tissue ratio at 1 h (in vivo; Tumor-to-Blood ratio (T/B)) was 6.8 ± 4.41, the tissue to tissue ratio at 2 h (in vivo; Tumor-to-Blood ratio (T/B)) was 21.6 ± 9.41 and the tissue to tissue ratio at 0.5 h (in vivo; Tumor-to-Bone ratio (T/B)) was 19.2 ± 4.91. It also gave a tissue to tissue ratio at 1 h (in vivo; Tumor-to-Bone ratio (T/B)) of 18.8 ± 5.04, a tissue to tissue ratio at 2 h (in vivo; Tumor-to-Bone ratio (T/B)) of 142 ± 25 and a tissue to tissue ratio at 0.5 h (in vivo; Tumor-to-Brain ratio (T/B)) of 39.7 ± 24.6. It also gave a tissue to tissue ratio at 1 h (in vivo; Tumor-to-Brain ratio (T/B)) of 61.8 ± 7.46, a tissue to tissue ratio at 2 h (in vivo; Tumor-to-Brain ratio (T/B)) of 154 ± 17.5 and a tissue to tissue ratio at 0.5 h (in vivo; Tumor-to-Heart ratio (T/B)) of 5.23 ± 2.91. It also gave a tissue to tissue ratio at 1 h (in vivo; Tumor-to-Heart ratio (T/B)) of 8.18 ± 0.91, a tissue to tissue ratio at 2 h (in vivo; Tumor-to-Heart ratio (T/B)) of 18.5 ± 3.74 and a tissue to tissue ratio at 0.5 h (in vivo; Tumor-to-Kidney ratio (T/B)) of 1.66 ± 1.37. It also gave a tissue to tissue ratio at 1 h (in vivo; Tumor-to-Kidney ratio (T/B)) of 1.15 ± 0.15, a tissue to tissue ratio at 2 h (in vivo; Tumor-to-Kidney ratio (T/B)) of 1.62 ± 0.29 and a tissue to tissue ratio at 0.5 h (in vivo; [3]) of 8.98 ± 3.85. It also gave a tissue to tissue ratio at 1 h (in vivo; [3]) of 10.5 ± 1.55, a tissue to tissue ratio at 2 h (in vivo; [3]) of 40.2 ± 29.4 and a tissue to tissue ratio at 0.5 h (in vivo; Tumor-to-Liver ratio (T/B)) of 2.07 ± 1.51. For the same compound, the tissue to tissue ratio at 1 h (in vivo; Tumor-to-Liver ratio (T/B)) was 3.05 ± 0.56, the tissue to tissue ratio at 2 h (in vivo; Tumor-to-Liver ratio (T/B)) was 11.9 ± 4.6 and the tissue to tissue ratio at 0.5 h (in vivo; Tumor-to-Lung ratio (T/B)) was 3.34 ± 2.07. The tissue to tissue ratio at 1 h (in vivo; Tumor-to-Lung ratio (T/B)) was 5.56 ± 2.82, the tissue to tissue ratio at 2 h (in vivo; Tumor-to-Lung ratio (T/B)) was 19.7 ± 2.99 and the tissue to tissue ratio at 0.5 h (in vivo; Tumor-to-Muscle ratio (T/M)) was 11.8 ± 5.75. It also gave a tissue to tissue ratio at 1 h (in vivo; Tumor-to-Muscle ratio (T/M)) of 16.5 ± 2.99, a tissue to tissue ratio at 2 h (in vivo; Tumor-to-Muscle ratio (T/M)) of 33 ± 7.91 and a tissue to tissue ratio at 0.5 h (in vivo; [4]) of 7.72 ± 2.49. For the same compound, the tissue to tissue ratio at 1 h (in vivo; [4]) was 8.04 ± 2.02, the tissue to tissue ratio at 2 h (in vivo; [4]) was 26 ± 11.9 and the tissue to tissue ratio at 0.5 h (in vivo; Tumor-to-Spleen ratio (T/B)) was 7.04 ± 3.92. The tissue to tissue ratio at 1 h (in vivo; Tumor-to-Spleen ratio (T/B)) was 12.6 ± 2, the tissue to tissue ratio at 2 h (in vivo; Tumor-to-Spleen ratio (T/B)) was 39.4 ± 7.6 and the tissue to tissue ratio at 0.5 h (in vivo; Tumor-to-Stomach ratio (T/B)) was 4.5 ± 3.7. The tissue to tissue ratio at 1 h (in vivo; Tumor-to-Stomach ratio (T/B)) was 5.93 ± 0.89, the tissue to tissue ratio at 2 h (in vivo; Tumor-to-Stomach ratio (T/B)) was 10.5 ± 2.83 and the tissue uptake at 0.5 h (in vivo; Bladder uptake) was 0.97 ± 0.52 %ID/g. It also gave a tissue uptake at 1 h (in vivo; Bladder uptake) of 1.59 ± 0.58 %ID/g, a tissue uptake at 2 h (in vivo; Bladder uptake) of 0.53 ± 0.15 %ID/g and a tissue uptake at 0.5 h (in vivo; Blood uptake) of 2.25 ± 1.2 %ID/g. The tissue uptake at 2 h (in vivo; Blood uptake) was 1.56 ± 0.97 %ID/g, the tissue uptake at 0.5 h (in vivo; Bone uptake) was 0.78 ± 0.48 %ID/g and the tissue uptake at 2 h (in vivo; Bone uptake) was 0.22 ± 0.18 %ID/g. It also gave a tissue uptake at 0.5 h (in vivo; Brain uptake) of 0.17 ± 0.07 %ID/g, a tissue uptake at 2 h (in vivo; Brain uptake) of 0.06 ± 0.04 %ID/g and a tissue uptake at 0.5 h (in vivo; Heart uptake) of 1.26 ± 0.44 %ID/g. It also gave a tissue uptake at 2 h (in vivo; Heart uptake) of 1.14 ± 0.39 %ID/g, a tissue uptake at 0.5 h (in vivo; Kidney uptake) of 5.24 ± 3.64 %ID/g and a tissue uptake at 1 h (in vivo; Kidney uptake) of 11.2 ± 1.84 %ID/g. The tissue uptake at 2 h (in vivo; Kidney uptake) was 12.7 ± 3.23 %ID/g, the tissue uptake at 0.5 h (in vivo; Large intestine uptake) was 1.38 ± 1.37 %ID/g and the tissue uptake at 2 h (in vivo; Large intestine uptake) was 0.67 ± 0.34 %ID/g. It also gave a tissue uptake at 0.5 h (in vivo; Liver uptake) of 3.45 ± 1.37 %ID/g, a tissue uptake at 1 h (in vivo; Liver uptake) of 4.24 ± 0.47 %ID/g and a tissue uptake at 2 h (in vivo; Liver uptake) of 2.01 ± 1.19 %ID/g. It also gave a tissue uptake at 0.5 h (in vivo; Lung uptake) of 2.01 ± 0.71 %ID/g, a tissue uptake at 2 h (in vivo; Lung uptake) of 1.02 ± 0.01 %ID/g and a tissue uptake at 0.5 h (in vivo; Muscle uptake) of 0.57 ± 0.24 %ID/g. The tissue uptake at 2 h (in vivo; Muscle uptake) was 0.62 ± 0.19 %ID/g, the tissue uptake at 0.5 h (in vivo; Small intestine uptake) was 1.48 ± 0.73 %ID/g and the tissue uptake at 2 h (in vivo; Small intestine uptake) was 0.86 ± 0.32 %ID/g. The tissue uptake at 0.5 h (in vivo; Spleen uptake) was 0.96 ± 0.4 %ID/g, the tissue uptake at 2 h (in vivo; Spleen uptake) was 0.52 ± 0.05 %ID/g and the tissue uptake at 0.5 h (in vivo; Stomach uptake) was 1.11 ± 0.59 %ID/g. For the same compound, the tissue uptake at 2 h (in vivo; Stomach uptake) was 1.97 ± 0.39 %ID/g, the tissue uptake at 0.5 h (in vivo; Tumor uptake) was 5.81 ± 1.83 %ID/g and the tissue uptake at 2 h (in vivo; Tumor uptake) was 20.2 ± 3.31 %ID/g.
